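48-hour exposure; five concentrations; linearly interpolated endpoints. TGI denotes the concentration required for complete inhibition of growth.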 Where only a bound is given, the exact number is not on record here.

Among the test systems are A549 NSCLC; HL-60(TB) leukemia; HOP-62 NSCLC; HS 578T breast; IGROV1 ovarian; KM12 colon; LOX IMVI melanoma; MDA-N; NCI-H23 lung; NCI-H460 lung; OVCAR-4 ovarian; RPMI-8226 leukemia; SF-268 CNS; SF-295 CNS; SK-OV-3 ovarian; UACC-62 melanoma.
What all share (assay): growth of human tumour cells (NCI), 48 h

As for `CCOP(=O)(OCC)C(C)(CC)N/C(=N/C(NC(C)=O)(C(F)(F)F)C(F)(F)F)NC1=NC(C(F)(F)F)(C(F)(F)F)N=C(C(F)(F)F)O1` (stereo not given), the TGI with A549 NSCLC is over 100 µM; with HL-60(TB) leukemia, 45.8 µM; in the experiment with HOP-62 NSCLC, over 100 µM; in the experiment with HS 578T breast, over 100 µM; with IGROV1 ovarian, over 100 µM; in the experiment with KM12 colon, over 100 µM. Moreover, the TGI in the experiment with LOX IMVI melanoma is over 100 µM; in the experiment with MDA-N it was over 100 µM; in the experiment on NCI-H23 lung it was 91.5 µM; with NCI-H460 lung, over 100 µM; with OVCAR-4 ovarian it was 84.2 µM; with RPMI-8226 leukemia, 73.7 µM. Also, the TGI in the experiment with SF-268 CNS is over 100 µM; in the experiment with SF-295 CNS it was 82.8 µM; in the experiment on SK-OV-3 ovarian it was over 100 µM; in the experiment on UACC-62 melanoma, over 100 µM.

Regarding `COC(=O)CNS(=O)(=O)c1ccc(-c2c3nc(c(-c4ccc(S(=O)(=O)NCC(=O)OC)cc4)c4ccc([nH]4)c(-c4ccc(S(=O)(=O)NCC(=O)OC)cc4)c4nc(c(-c5ccc(S(=O)(=O)NCC(=O)OC)cc5)c5ccc2[nH]5)C=C4)C=C3)cc1`, the TGI in the experiment with A549 NSCLC, in the experiment on HL-60(TB) leukemia, in the experiment with HOP-62 NSCLC, in the experiment on HS 578T breast, with IGROV1 ovarian and with KM12 colon was over 100 µM in each case. Moreover, the TGI with LOX IMVI melanoma, in the experiment with MDA-N, with NCI-H23 lung, with NCI-H460 lung, in the experiment on OVCAR-4 ovarian and in the experiment on RPMI-8226 leukemia was over 100 µM throughout. Besides, the TGI with SF-268 CNS, in the experiment on SF-295 CNS, in the experiment with SK-OV-3 ovarian and with UACC-62 melanoma was over 100 µM in each case.

As to `NC(=O)c1cc2ccc(O)cc2oc1=Nc1ccccc1`, the TGI in the experiment on A549 NSCLC was over 100 µM; in the experiment with HL-60(TB) leukemia, 62.4 µM; in the experiment with HOP-62 NSCLC, over 100 µM; in the experiment on HS 578T breast, over 100 µM; in the experiment on IGROV1 ovarian it was over 100 µM; in the experiment with KM12 colon it was over 100 µM. Besides, the TGI is over 100 µM with LOX IMVI melanoma; over 100 µM in the experiment on MDA-N; 56 µM in the experiment on NCI-H23 lung; over 100 µM in the experiment with NCI-H460 lung; over 100 µM in the experiment with OVCAR-4 ovarian; 63.8 µM with RPMI-8226 leukemia. Also, the TGI in the experiment on SF-268 CNS, in the experiment on SF-295 CNS, in the experiment on SK-OV-3 ovarian and in the experiment on UACC-62 melanoma was over 100 µM each time.

Take `Cc1cccc(CP(Cc2cccc(C)c2)CC2(Cp3c4ccccc4c4ccccc43)COC2)c1`: the TGI is over 100 µM with A549 NSCLC; 2.78 µM in the experiment on HL-60(TB) leukemia; over 100 µM with HOP-62 NSCLC; over 100 µM in the experiment with HS 578T breast; over 100 µM with IGROV1 ovarian; over 100 µM with KM12 colon. Moreover, the TGI in the experiment with LOX IMVI melanoma is over 100 µM; with MDA-N, over 100 µM; in the experiment with NCI-H23 lung, over 100 µM; in the experiment with NCI-H460 lung it was over 100 µM; with OVCAR-4 ovarian, over 100 µM; with RPMI-8226 leukemia, over 62.5 µM. The TGI in the experiment with SF-268 CNS, in the experiment with SF-295 CNS, in the experiment on SK-OV-3 ovarian and in the experiment on UACC-62 melanoma was over 100 µM each time.

For the compound `Brc1cc(CCOC2CCCCO2)c(-c2sccc2CCOC2CCCCO2)s1` (stereo not given), the TGI with A549 NSCLC is over 100 µM; with HL-60(TB) leukemia, 42.3 µM; with HOP-62 NSCLC, over 100 µM; in the experiment on HS 578T breast, over 95.7 µM; with IGROV1 ovarian it was over 100 µM; in the experiment on KM12 colon, over 100 µM. In addition, the TGI was over 71.2 µM in the experiment on LOX IMVI melanoma; over 100 µM with MDA-N; over 100 µM in the experiment with NCI-H23 lung; over 100 µM in the experiment on NCI-H460 lung; over 100 µM in the experiment with OVCAR-4 ovarian; over 100 µM in the experiment on RPMI-8226 leukemia. Further, the TGI with SF-268 CNS, in the experiment on SF-295 CNS, with SK-OV-3 ovarian and in the experiment on UACC-62 melanoma was over 100 µM in each case.

The values above are taken from PubChem BioAssay (NCI).
